Experimental data: patent US10125121B2, “FYN kinase inhibitors” (ROTTAPHARM BIOTECH S.R.L., priority 2015, dated 2018)

Target: active FYN (human recombinant, 62.7 kDa) (Homo sapiens, UniProt P06241)
Assay: In vitro kinase assay (Z′-LYTE FRET)
Format: biochemical
Details: read-out: IC50(nM) FYN INHIBITION
Procedure: Assays to determine the kinase inhibitory activity of compounds were performed using an automatic liquid handling device (Microlab STAR Hamilton) and Z′-LYTE™ Kinase Assay Platform, a Fluorescence Resonance Energy Transfer (FRET)-based assay platform compatible with high-throughput screening (HTS) applications. The assay employs a fluorescence-based, coupled-enzyme format and utilizes the differential sensitivity of phosphorylated and non-phosphorylated peptides to proteolytic cleavage.
All reagents were diluted in reaction buffer and the kinase reaction was carried out in a total volume of 10 μl, for 60 minutes at 25° C. The 0% Phosphorylation (i.e. no ATP) and 100% Phosphorylation (i.e. synthetically phosphorylated peptide supplied) Assay Controls, included in each plate, allowed to calculate the percent phosphorylation achieved in the specific reaction well. The 0% Inhibition and 0% Phosphorylation (i.e. 100% Inhibition) Controls define the dynamic range in the screen. At the end of incubation, a secondary reaction (the Development Reaction) started by adding 5 μl of Development Reagent, containing a site-specific protease that recognizes and cleaves non-phosphorylated peptides, and was interrupted after 60 minutes with 5 μl/sample of Stop Reagent.
The compounds were tested in a range of concentrations 10^−6-10^−9 M.
Results are expressed as percentage of inhibition and the IC50 values were calculated by non-linear curve fitting using GraphPad™ Prism software.

active FYN (human recombinant, 62.7 kDa), sequence (P06241 whole entry): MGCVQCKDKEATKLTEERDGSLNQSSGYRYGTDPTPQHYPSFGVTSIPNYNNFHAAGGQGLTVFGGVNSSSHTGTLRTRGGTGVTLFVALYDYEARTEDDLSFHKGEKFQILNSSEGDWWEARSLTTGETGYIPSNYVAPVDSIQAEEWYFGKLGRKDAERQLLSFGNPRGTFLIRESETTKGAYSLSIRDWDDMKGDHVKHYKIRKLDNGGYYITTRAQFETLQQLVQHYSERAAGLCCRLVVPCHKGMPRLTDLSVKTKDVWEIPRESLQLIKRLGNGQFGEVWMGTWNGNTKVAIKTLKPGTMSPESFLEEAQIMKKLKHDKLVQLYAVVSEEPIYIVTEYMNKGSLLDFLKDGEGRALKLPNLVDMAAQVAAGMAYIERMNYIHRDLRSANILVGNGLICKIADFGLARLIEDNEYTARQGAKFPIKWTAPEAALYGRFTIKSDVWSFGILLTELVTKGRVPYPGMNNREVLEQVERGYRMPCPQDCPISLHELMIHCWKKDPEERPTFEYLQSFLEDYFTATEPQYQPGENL

IC50 [nM] | SMILES
441 | COc1ccnc(Nc2ccnc(N3CCN(Cc4ccc(NC(=O)c5ccccc5C(F)(F)F)cc4)CC3)n2)c1 [Compound 45, N-(4-((4-(4-((4-methoxypyridin-2-yl)amino)pyrimidin-2-yl)piperazin-1-yl)methyl)phenyl)-2-(trifluoromethyl)benzamide]
> 1000 | O=C(Nc1ccc(CN2CCN(c3nccc(Nc4nnc(C5CC5)o4)n3)CC2)cc1)c1ccccc1C(F)(F)F [Compound 44, N-(4-((4-(4-((5-cyclopropyl-1,3,4-oxadiazol-2-yl)amino)pyrimidin-2-yl)piperazin-1-yl)methyl)phenyl)-2-(trifluoromethyl)benzamide]
424 | Cc1nc(C(=O)Nc2ccc(CN3CCN(c4nccc(Nc5cc(C6CC6)[nH]n5)n4)CC3)nc2)c(C(F)(F)F)o1 [Compound 22, N-(6-((4-(4-((5-cyclopropyl-1H-pyrazol-3-yl)amino)pyrimidin-2-yl)piperazin-1-yl)methyl)pyridin-3-yl)-2-methyl-5-(trifluoromethyl)oxazole-4-carboxamide]
> 1000 | O=C(Nc1ccc(CN2CCN(c3nccc(Nc4cc(C5CC5)[nH]n4)n3)CC2)cc1)c1cccc(C(F)(F)F)c1 [Compound 9, N-(4-((4-(4-((5-cyclopropyl-1H-pyrazol-3-yl)amino)pyrimidin-2-yl)piperazin-1-yl)methyl)phenyl)-3-(trifluoromethyl)benzamide]
74 | Cn1cc(C(=O)Nc2ccc(CN3CCN(c4nccc(Nc5cc(C6CC6)[nH]n5)n4)CC3)cc2)c(C(F)(F)F)n1 [Compound 33, N-(4-((4-(4-((5-cyclopropyl-1H-pyrazol-3-yl)amino)pyrimidin-2-yl)piperazin-1-yl)-methyl)phenyl)-1-methyl-3-(trifluoromethyl)-1H-pyrazole-4-carboxamide]
> 1000 | O=C(Nc1ccc(OC(F)(F)F)cc1)c1ccc(CN2CCN(c3nccc(Nc4cc(C5CC5)[nH]n4)n3)CC2)cc1 [Compound 37, 4-((4-(4-((5-cyclopropyl-1H-pyrazol-3-yl)amino)pyrimidin-2-yl)piperazin-1-yl)methyl)-N-(4-(trifluoromethoxy)phenyl)benzamide]
667 | C[C@H]1CN(c2nccc(Nc3cc(C4CC4)[nH]n3)n2)CCN1Cc1ccc(NC(=O)c2cccnc2C(F)(F)F)cc1 [Compound 31, (S)-N-(4-((4-(4-((5-cyclopropyl-1H-pyrazol-3-yl)amino)pyrimidin-2-yl)-2-methyl-piperazin-1-yl)methyl)phenyl)-2-(trifluoromethyl)nicotinamide]
663 | O=C(Nc1ccc(CN2CCN(c3nccc(Nc4cc(C5CC5)[nH]n4)n3)CC2)nn1)c1ccccc1C(F)(F)F [Compound 42, N-(6-((4-(4-((5-cyclopropyl-1H-pyrazol-3-yl)amino)pyrimidin-2-yl)piperazin-1-yl)methyl)pyridazin-3-yl)-2-(trifluoromethyl)benzamide]
220 | COc1cc(C)ccc1C(=O)Nc1ccc(CN2CCN(c3nccc(Nc4cc(C5CC5)[nH]n4)n3)CC2)cc1 [Compound 15, N-(4-((4-(4-((5-cyclopropyl-1H-pyrazol-3-yl)amino)pyrimidin-2-yl)piperazin-1-yl)methyl)phenyl)-2-methoxy-4-methyl benzamide]
237 | COc1ncccc1C(=O)Nc1ccc(CN2CCN(c3nccc(Nc4cc(C5CC5)[nH]n4)n3)CC2)cc1 [Compound 28, N-(4-((4-(4-((5-cyclopropyl-1H-pyrazol-3-yl)amino)pyrimidin-2-yl)piperazin-1-yl)methyl)phenyl)-2-methoxy-nicotinamide]
70 | O=C(Nc1ccc(CN2CCN(c3nccc(Nc4cc(C5CC5)[nH]n4)n3)CC2)cc1)c1ccccc1F [Compound 3, N-(4-((4-(4-((5-cyclopropyl-1H-pyrazol-3-yl)amino)pyrimidin-2-yl)piperazin-1-yl)methyl)phenyl)-2-fluorobenzamide]
122 | CS(=O)(=O)c1cccc(C(=O)Nc2ccc(CN3CCN(c4nccc(Nc5cc(C6CC6)[nH]n5)n4)CC3)cc2)c1 [Compound 16, N-(4-((4-(4-((5-cyclopropyl-1H-pyrazol-3-yl)amino)pyrimidin-2-yl)piperazin-1-yl)methyl)phenyl)-3-(methylsulfonyl)benzamide]
950 | O=C(Nc1ccc(CN2CCN(c3nccc(Nc4cc(C5CC5)[nH]n4)n3)CC2)cc1)c1ccc(C(F)(F)F)cc1 [Compound 10, N-(4-((4-(4-((5-cyclopropyl-1H-pyrazol-3-yl)amino)pyrimidin-2-yl)piperazin-1-yl)methyl)phenyl)-4-(trifluoromethyl)benzamide]
86 | Cc1nc(C(=O)Nc2ccc(CN3CCN(c4nccc(Nc5cc(C6CC6)[nH]n5)n4)CC3)cc2)co1 [Compound 20, N-(4-((4-(4-((5-cyclopropyl-1H-pyrazol-3-yl)amino)pyrimidin-2-yl)piperazin-1-yl)methyl)phenyl)-2-methyloxazole-4-carboxamide]
1020 | CCc1cc(NC(=O)c2ccccc2F)ccc1CN1CCN(c2nc(C)cc(Nc3cc(C4CC4)[nH]n3)n2)CC1 [Compound 19, N-(4-((4-(4-((5-cyclopropyl-1H-pyrazol-3-yl)amino)-6-methylpyrimidin-2-yl)piperazin-1-yl)methyl)-3-ethylphenyl)-2-fluorobenzamide]
29 | Cc1cc(Nc2cc(C3CC3)n[nH]2)nc(N2CCN(Cc3ccc(NC(=O)c4ccccc4C(F)(F)F)cc3)CC2)n1 [Compound 46, N-(4-((4-(4-((5-cyclopropyl-1H-pyrazol-3-yl)amino)-6-methylpyrimidin-2-yl)piperazin-1-yl)methyl)phenyl)-2-(trifluoromethyl)benzamide]
> 1000 | O=C(Nc1ccc(C(F)(F)F)cc1)c1ccc(CN2CCN(c3nccc(Nc4cc(C5CC5)[nH]n4)n3)CC2)cc1 [Compound 39, 4-((4-(4-((5-cyclopropyl-1H-pyrazol-3-yl)amino)pyrimidin-2-yl)piperazin-1-yl)methyl)-N-(4-(trifluoromethyl)phenyl)-benzamide]
37 | CC1CCCN1C(=O)Nc1ccc(CN2CCN(c3nccc(Nc4cc(C5CC5)[nH]n4)n3)CC2)cc1 (stereo not drawn) [Compound 48, N-(4-((4-(4-((5-cyclopropyl-1H-pyrazol-3-yl)amino)pyrimidin-2-yl)piperazin-1-yl)methyl)phenyl)-2-methylpyrrolidine-1-carboxamide]
1100 | O=C(Nc1ccc(CN2CCN(c3nccc(Nc4cc(C5CC5)[nH]n4)n3)CC2)cc1)c1ccccn1 [Compound 24, N-(4-((4-(4-((5-cyclopropyl-1H-pyrazol-3-yl)amino)pyrimidin-2-yl)piperazin-1-yl)methyl)phenyl)picolinamide]
280 | O=S(=O)(Nc1ccc(CN2CCN(c3nccc(Nc4cc(C5CC5)[nH]n4)n3)CC2)cc1)c1ccccc1F [Compound 40, N-(4-((4-(4-((5-cyclopropyl-1H-pyrazol-3-yl)amino)pyrimidin-2-yl)piperazin-1-yl)methyl)phenyl)-2-fluorobenzene-sulfonamide]
150 | COc1ccccc1C(=O)Nc1ccc(CN2CCN(c3nccc(Nc4cc(C5CC5)[nH]n4)n3)CC2)cc1 [Compound 7, N-(4-((4-(4-((5-cyclopropyl-1H-pyrazol-3-yl)amino)pyrimidin-2-yl)piperazin-1-yl)methyl)phenyl)-2-methoxy-benzamide]
23 | O=C(Nc1ccc(CN2CCN(c3nccc(Nc4cc(C5CC5)[nH]n4)n3)CC2)cc1)c1ccccc1Cl [Compound 5, 2-chloro-N-(4-((4-(4-((5-cyclopropyl-1H-pyrazol-3-yl)amino)pyrimidin-2-yl)piperazin-1-yl)methyl)phenyl)benzamide]
180 | C[C@@H]1CN(c2nccc(Nc3cc(C4CC4)[nH]n3)n2)CCN1Cc1ccc(NC(=O)c2cccnc2C(F)(F)F)cc1 [Compound 30, (R)-N-(4-((4-(4-((5-cyclopropyl-1H-pyrazol-3-yl)amino)pyrimidin-2-yl)-2-methylpiperazin-1-yl)methyl)phenyl)-2-(trifluoromethyl)nicotinamide]
> 1000 | O=C(Nc1cccc(C(F)(F)F)c1)c1ccc(CN2CCN(c3nccc(Nc4cc(C5CC5)[nH]n4)n3)CC2)cc1 [Compound 38, 4-((4-(4-((5-cyclopropyl-1H-pyrazol-3-yl)amino)pyrimidin-2-yl)piperazin-1-yl)methyl)-N-(3-(trifluoromethyl)-phenyl)benzamide]
89 | CC(C)c1ccccc1C(=O)Nc1ccc(CN2CCN(c3nccc(Nc4cc(C5CC5)[nH]n4)n3)CC2)cc1 [Compound 6, N-(4-((4-(4-((5-cyclopropyl-1H-pyrazol-3-yl)amino)pyrimidin-2-yl)piperazin-1-yl)methyl)phenyl)-2-isopropylbenzamide]
69 | O=C(Nc1ccc(CN2CCN(c3nccc(Nc4cc(C5CC5)[nH]n4)n3)CC2)cc1)NC1CCCC1 [Compound 49, 1-cyclopentyl-3-(4-((4-(4-((3-cyclopropyl-1H-pyrazol-5-yl)amino)pyrimidin-2-yl)piperazin-1-yl)methyl)phenyl)urea]
96 | O=C(Nc1ccc(CN2CCN(c3nccc(Nc4cc(C5CC5)[nH]n4)n3)CC2)cc1)c1ccccc1 [Compound 1, N-(4-((4-(4-((5-cyclopropyl-1H-pyrazol-3-yl)amino)pyrimidin-2-yl)piperazin-1-yl)methyl)phenyl)benzamide]
